Here are results for seven compounds from patent US9499550B2 (BRISTOL-MYERS SQUIBB COMPANY, priority 2012, dated 2016).

Molecules are shown by their SMILES. Like-named read-outs stand apart in the source and are kept apart here.

Experiment [1] concerns HCV genotype 1b (Con1) replicon in HUH-7 cells. Put plainly: HCV replicon luciferase reporter assay, genotype 1b. In kind it is cell-based. The conditions noted are these: Hepatitis C virus, Huh-7, 72 h, HCV genotype 1b replicon luciferase, 3 days incubation, read-out: LE_1b (EC50, range). The method, boiled down: (§1)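 Replicon inhibition for both genotypes was measured as Renilla luciferase signal (EnduRen, 7.5 μM final, 2 h) after 3-day, 37° C exposure of replicon-bearing HUH-7 cells in 4% FCS DMEM, 0.5% DMSO. The 1b construct carries S1179I; the 1a H77 construct carries P1496L and S2204I. Twenty-point, 3-fold dilutions were fitted four-parametrically for EC50, and CC50 was taken from multiplexed Cell Titer-Blue.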

Experiment [2] has as its system HCV genotype 1a (H77 strain) replicon in HUH-7 cells. Put plainly: HCV replicon luciferase reporter assay, genotype 1a. In kind it is cell-based. The following applies: Hepatitis C virus, Huh-7, 72 h, HCV genotype 1a replicon luciferase, 3 days incubation, read-out: LE_1a (EC50, range). The gist of the method: as §1

As for `C[C@@H]1CC/C=C\[C@@H]2C[C@@]2(C(=O)NS(=O)(=O)C2(C)CC2)NC(=O)[C@@H]2C[C@@H](Oc3ncc(OC4CC4)c4ccccc34)CN2C(=O)[C@@H](NC(=O)OC2CCCCC2)[C@H](C)C1` [Compound 4055, cyclohexyl (2R,6S,7R,9R,13aS,14aR,16aS,Z)-2-(4-cyclopropoxyisoquinolin-1-yloxy)-7,9-dimethyl-14a-(1-methylcyclopropylsulfonylcarbamoyl)-5,16-dioxo-1,2,3,5,6,7,8,9,10,11,13a,14,14a,15,16,16a-hexadecahydrocyclopropa[e]pyrrolo[1,2-a][1,4]diazacyclopentadecin-6-ylcarbamate], the EC50 in experiment [1] and in experiment [2] was less than 5.46 nM in each case.
In the case of `C[C@@H]1CC/C=C\[C@@H]2C[C@@]2(C(=O)NS(=O)(=O)C2(C)CC2)NC(=O)[C@@H]2C[C@@H](Oc3ncc(OC4CC4)c4ccccc34)CN2C(=O)[C@@H](NC(=O)OC(C)(C)C(F)(F)F)[C@H](C)C1` [Compound 4056, 1,1,1-trifluoro-2-methylpropan-2-yl ((2R,6S,7R,9R,13aS,14aR,16aS,Z)-2-((4-cyclopropoxyisoquinolin-1-yl)oxy)-7,9-dimethyl-14a-(((1-methylcyclopropyl)sulfonyl)carbamoyl)-5,16-dioxo-1,2,3,5,6,7,8,9,10,11,13a,14,14a,15,16,16a-hexadecahydrocyclopropa[e]pyrrolo[1,2-a][1,4]diazacyclopentadecin-6-yl)carbamate], the concentration giving a half-maximal response (EC50) in experiment [1] and in experiment [2] was less than 5.46 nM in each case.
As to `COc1cnc(O[C@@H]2C[C@H]3C(=O)N[C@]4(C(=O)NS(=O)(=O)C5(C)CC5)C[C@H]4/C=C\CC[C@@H](C)C[C@@H](C)[C@H](NC(=O)OC(C)(C)C)C(=O)N3C2)c2ccccc12` [Compound 4057, tert-butyl (2R,6S,7R,9R,13aS,14aR,16aS,Z)-2-(4-methoxyisoquinolin-1-yloxy)-7,9-dimethyl-14a-(1-methylcyclopropylsulfonylcarbamoyl)-5,16-dioxo-1,2,3,5,6,7,8,9,10,11,13a,14,14a,15,16,16a-hexadecahydrocyclopropa[e]pyrrolo[1,2-a][1,4]diazacyclopentadecin-6-ylcarbamate], the EC50 in experiment [1] and in experiment [2] was less than 5.46 nM in each case.
`COc1cnc(O[C@@H]2C[C@H]3C(=O)N[C@]4(C(=O)NS(=O)(=O)C5CC5)C[C@H]4/C=C\CC[C@@H](C)C[C@@H](C)[C@H](NC(=O)OC(C)(C)C(F)(F)F)C(=O)N3C2)c2cc(F)ccc12` [Compound 4059]: the EC50 in experiment [1] (GETYPE1B) and in experiment [2] (GETYPE1A) was less than 5.46 nM throughout.
With `COc1cnc(O[C@@H]2C[C@H]3C(=O)N[C@]4(C(=O)NS(=O)(=O)C5(C)CC5)C[C@H]4/C=C\CC[C@@H](C)C[C@@H](C)[C@H](NC(=O)OC(C)(C)C(F)(F)F)C(=O)N3C2)c2cc(F)ccc12` [Compound 4060], the EC50 in experiment [1] (GETYPE1B) and in experiment [2] (GETYPE1A) was less than 5.46 nM each time.
For the compound `CCOc1cnc(O[C@@H]2C[C@H]3C(=O)N[C@]4(C(=O)NS(=O)(=O)C5CC5)C[C@H]4/C=C\CC[C@@H](C)C[C@@H](C)[C@H](NC(=O)OC(C)(C)C)C(=O)N3C2)c2cc(F)ccc12` [Compound 4061, tert-butyl (2R,6S,7R,9R,13aS,14aR,16aS,Z)-14a-(cyclopropylsulfonylcarbamoyl)-2-(4-ethoxy-7-fluoroisoquinolin-1-yloxy)-7,9-dimethyl-5,16-dioxo-1,2,3,5,6,7,8,9,10,11,13a,14,14a,15,16,16a-hexadecahydrocyclopropa[e]pyrrolo[1,2-a][1,4]diazacyclopentadecin-6-ylcarbamate], the EC50 in experiment [1] and in experiment [2] was less than 5.46 nM throughout.
As for `CCOc1cnc(O[C@@H]2C[C@H]3C(=O)N[C@]4(C(=O)NS(=O)(=O)C5CC5)C[C@H]4/C=C\CC[C@@H](C)C[C@@H](C)[C@H](NC(=O)OC(C)(C)C(F)(F)F)C(=O)N3C2)c2cc(F)ccc12` [Compound 4062], the EC50 in experiment [1] (GETYPE1B) and in experiment [2] (GETYPE1A) was less than 5.46 nM throughout.
